Where two headings read alike, the source gives them in different places.
Assays:
ER = ER (Homo sapiens (Human), UniProt P03372); experiment: In-cell western blot analysis of ER for "B" compounds; assay type: cell-based; details: 16 hours, read-out: ICW DC50
Outline: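 ER levels given as a percentage of untreated/DMSO-treated wells (100%). Detection used primary antibodies for 2 h at room temperature followed by 680 and 800 nm fluorescent secondaries at 1:1000 for 1 h, read by LI-COR imaging.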

[1] = Cell growth assay (WST-8) for "B" compounds; assay type: cell-based; details: T47D, read-out: Cell growth Inhibition in T47D cell line IC50
Outline: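 Four-day compound exposure of cells plated at 1500/well the day before. Read-out is WST-8 (10%, 2.5 h, 37 °C) absorbance at 450 nm, normalized to vehicle control over three independent repeats.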

Sequence of ER (P03372 whole entry): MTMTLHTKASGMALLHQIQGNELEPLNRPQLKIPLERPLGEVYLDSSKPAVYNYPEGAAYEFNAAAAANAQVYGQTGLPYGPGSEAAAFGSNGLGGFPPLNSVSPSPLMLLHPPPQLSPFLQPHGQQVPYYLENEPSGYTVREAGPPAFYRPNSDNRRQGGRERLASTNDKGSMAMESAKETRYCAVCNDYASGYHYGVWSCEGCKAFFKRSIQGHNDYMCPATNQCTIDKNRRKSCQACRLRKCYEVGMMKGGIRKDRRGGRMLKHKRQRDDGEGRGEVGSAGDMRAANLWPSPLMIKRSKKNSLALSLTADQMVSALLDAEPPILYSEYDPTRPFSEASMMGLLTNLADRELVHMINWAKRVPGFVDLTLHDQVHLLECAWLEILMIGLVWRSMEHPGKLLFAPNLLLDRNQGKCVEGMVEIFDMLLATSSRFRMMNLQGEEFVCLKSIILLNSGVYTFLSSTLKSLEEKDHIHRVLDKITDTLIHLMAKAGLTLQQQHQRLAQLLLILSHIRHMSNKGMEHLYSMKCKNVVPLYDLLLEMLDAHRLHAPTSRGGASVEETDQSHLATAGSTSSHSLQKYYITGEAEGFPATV

SMILES	DC50 (ER) [nM]	IC50 ([1]; T47D cell line) [nM]	IC50 [1] [nM]
O=C1CCC(N2Cc3cc4c(cc3C2=O)OC[C@@H]2CN(C(=O)CN3C[C@@H]5CN(c6ccc([C@@H]7c8ccc(O)cc8CC[C@@H]7c7ccccc7)cc6)C[C@@H]5C3)CCN42)C(=O)N1 (stereo partly drawn) [Compound B157, 3-((S)-3-(2-((3aR,6aS)-5-(4-((1R,2S)-6-hydroxy-2-phenyl-1,2,3,4-tetrahydronaphthalen-1-yl)phenyl)hexahydropyrrolo[3,4-c]pyrrol-2(1H)-yl)acetyl)-8-oxo-1,2,3,4,4a,5,8,10-octahydro-9H-pyrazino[1′,2′:4,5][1,4]oxazino[2,3-f]isoindol-9-yl)piperidine-2,6-dione]	10 to 100	< 1	–
O=C1CCC(N2Cc3cc4c(cc3C2=O)OC[C@@H]2CN(C(=O)CN3CCC5(CC3)CCN(c3ncc([C@@H]6c7ccc(O)cc7CC[C@@H]6c6ccccc6)cn3)CC5)CCN42)C(=O)N1 (stereo partly drawn) [Compound B159, 3-((S)-3-(2-(9-(5-((1S,2S)-6-hydroxy-2-phenyl-1,2,3,4-tetrahydronaphthalen-1-yl)pyrimidin-2-yl)-3,9-diazaspiro[5.5]undecan-3-yl)acetyl)-8-oxo-1,2,3,4,4a,5,8,10-octahydro-9H-pyrazino[1′,2′:4,5][1,4]oxazino[2,3-f]isoindol-9-yl)piperidine-2,6-dione]	10 to 100	1 to 10	–
O=C1CCC(N2C(=O)c3cc4c(cc3C2=O)CN(CC(=O)N2CC3(CC(Nc5ccc([C@@H]6c7ccc(O)cc7CC[C@@H]6c6ccccc6)cc5)C3)C2)C4)C(=O)N1 (stereo partly drawn) [Compound B163, 2-(2,6-dioxopiperidin-3-yl)-6-(2-(6-((4-((1R,2S)-6-hydroxy-2-phenyl-1,2,3,4-tetrahydronaphthalen-1-yl)phenyl)amino)-2-azaspiro[3.3]heptan-2-yl)-2-oxoethyl)-6,7-dihydropyrrolo[3,4-f]isoindole-1,3(2H,5H)-dione]	< 10	1 to 10	–
O=C1CCC(N2Cc3cc4c(cc3C2=O)OC[C@@H]2CN(C3CN(CC5CCN(c6ccc([C@@H]7c8ccc(O)cc8CC[C@@H]7c7ccccc7)cc6)CC5)C3)CCN42)C(=O)N1 (stereo partly drawn) [Compound B164, 3-((S)-3-(1-((1-(4-((1R,2S)-6-hydroxy-2-phenyl-1,2,3,4-tetrahydronaphthalen-1-yl)phenyl)piperidin-4-yl)methyl)azetidin-3-yl)-8-oxo-1,2,3,4,4a,5,8,10-octahydro-9H-pyrazino[1′,2′:4,5][1,4]oxazino[2,3-f]isoindol-9-yl)piperidine-2,6-dione]	< 10	1 to 10	–
O=C1CCC(N2Cc3c(ccc4c3OCCC43CCN(CC4CCN(c5ccc([C@@H]6c7ccc(O)cc7CC[C@@H]6c6ccccc6)cc5)CC4)CC3)C2=O)C(=O)N1 (stereo partly drawn) [Compound B165, 3-(1-((1-(4-((1R,2S)-6-hydroxy-2-phenyl-1,2,3,4-tetrahydronaphthalen-1-yl)phenyl)piperidin-4-yl)methyl)-7′-oxo-2′,3′,7′,9′-tetrahydro-8′H-spiro[piperidine-4,4′-pyrano[2,3-e]isoindol]-8′-yl)piperidine-2,6-dione]	> 100	–	< 1
O=C1CCC(N2Cc3cc4c(cc3C2=O)CN(CC(=O)N2CCC3(CC2)CCN(c2ccc([C@@H]5c6ccc(O)cc6CC[C@@H]5c5ccccc5)cc2)CC3)C4)C(=O)N1 (stereo partly drawn) [Compound B166, 3-(6-(2-(9-(4-((1R,2S)-6-hydroxy-2-phenyl-1,2,3,4-tetrahydronaphthalen-1-yl)phenyl)-3,9-diazaspiro[5.5]undecan-3-yl)-2-oxoethyl)-1-oxo-3,5,6,7-tetrahydropyrrolo[3,4-f]isoindol-2(1H)-yl)piperidine-2,6-dione]	< 10	< 1	–
O=C1CCC(N2Cc3cc4c(cc3C2=O)OC[C@@H]2CN(C3CN(C5CCN(c6ccc([C@@H]7c8ccc(O)cc8CC[C@@H]7c7ccccc7)cc6)CC5)C3)CCN42)C(=O)N1 (stereo partly drawn) [Compound B167, 3-((S)-3-(1-(1-(4-((1R,2S)-6-hydroxy-2-phenyl-1,2,3,4-tetrahydronaphthalen-1-yl)phenyl)piperidin-4-yl)azetidin-3-yl)-8-oxo-1,2,3,4,4a,5,8,10-octahydro-9H-pyrazino[1′,2′:4,5][1,4]oxazino[2,3-f]isoindol-9-yl)piperidine-2,6-dione]	< 10	< 1	–
O=C1CCC(N2Cc3c(ccc4c3OCC43CCN(C(=O)CN4CC5(CC(Nc6ccc([C@@H]7c8ccc(O)cc8CC[C@@H]7c7ccccc7)cc6)C5)C4)CC3)C2=O)C(=O)N1 (stereo partly drawn) [Compound B168, 3-(1′-(2-(6-((4-((1R,2S)-6-hydroxy-2-phenyl-1,2,3,4-tetrahydronaphthalen-1-yl)phenyl)amino)-2-azaspiro[3.3]heptan-2-yl)acetyl)-6-oxo-6,8-dihydro-2H,7H-spiro[furo[2,3-e]isoindole-3,4′-piperidin]-7-yl)piperidine-2,6-dione]	< 10	< 1	–
O=C1CCC(N2Cc3c(ccc4c3OCC43CCN(CC(=O)N4CC5(CC(Nc6ccc([C@@H]7c8ccc(O)cc8CC[C@@H]7c7ccccc7)cc6)C5)C4)CC3)C2=O)C(=O)N1 (stereo partly drawn) [Compound B170, 3-(1′-(2-(6-((4-((1R,2S)-6-hydroxy-2-phenyl-1,2,3,4-tetrahydronaphthalen-1-yl)phenyl)amino)-2-azaspiro[3.3]heptan-2-yl)-2-oxoethyl)-6-oxo-6,8-dihydro-2H,7H-spiro[furo[2,3-e]isoindole-3,4′-piperidin]-7-yl)piperidine-2,6-dione]	< 10	–	< 1
O=C1CCC(N2Cc3c(ccc4c3OCC43CCN(CC(=O)N4CC5(CCN(c6ccc([C@@H]7c8ccc(O)cc8CC[C@@H]7c7ccccc7)cc6)CC5)C4)CC3)C2=O)C(=O)N1 (stereo partly drawn) [Compound B171, 3-(1′-(2-(7-(4-((1R,2S)-6-hydroxy-2-phenyl-1,2,3,4-tetrahydronaphthalen-1-yl)phenyl)-2,7-diazaspiro[3.5]nonan-2-yl)-2-oxoethyl)-6-oxo-6,8-dihydro-2H,7H-spiro[furo[2,3-e]isoindole-3,4′-piperidin]-7-yl)piperidine-2,6-dione]	< 10	–	< 1
O=C1CCC(N2Cc3cc4c(cc3C2=O)OC[C@@H]2CN(CC3CC5(CCN(c6ccc([C@@H]7c8ccc(O)cc8CC[C@@H]7c7ccccc7)cc6)CC5)CO3)CCN42)C(=O)N1 (stereo partly drawn) [Compound B173, 3-((4aS)-3-((8-(4-((1R,2S)-6-hydroxy-2-phenyl-1,2,3,4-tetrahydronaphthalen-1-yl)phenyl)-2-oxa-8-azaspiro[4.5]decan-3-yl)methyl)-8-oxo-1,2,3,4,4a,5,8,10-octahydro-9H-pyrazino[1′,2′: 4,5][1,4]oxazino[2,3-f]isoindol-9-yl)piperidine-2,6-dione]	> 100	< 1	–
O=C1CCC(N2Cc3c(ccc4c3OCC43CCN(CC4CC5(CCN(c6ccc([C@@H]7c8ccc(O)cc8CC[C@@H]7c7ccccc7)cc6)CC5)CO4)CC3)C2=O)C(=O)N1 (stereo partly drawn) [Compound B175, 3-(1′-((8-(4-((1R,2S)-6-hydroxy-2-phenyl-1,2,3,4-tetrahydronaphthalen-1-yl)phenyl)-2-oxa-8-azaspiro[4.5]decan-3-yl)methyl)-6-oxo-6,8-dihydro-2H,7H-spiro[furo[2,3-e]isoindole-3,4′-piperidin]-7-yl)piperidine-2,6-dione]	10 to 100	–	< 1
O=C1CCC(N2Cc3cc4c(cc3C2=O)OC[C@@H]2CN(CC3CCC5(CCN(c6ccc([C@@H]7c8ccc(O)cc8CC[C@@H]7c7ccccc7)cc6)CC5)O3)CCN42)C(=O)N1 (stereo partly drawn) [Compound B177, 3-((4aS)-3-((8-(4-((1R,2S)-6-hydroxy-2-phenyl-1,2,3,4-tetrahydronaphthalen-1-yl)phenyl)-1-oxa-8-azaspiro[4.5]decan-2-yl)methyl)-8-oxo-1,2,3,4,4a,5,8,10-octahydro-9H-pyrazino[1′,2′: 4,5][1,4]oxazino[2,3-f]isoindol-9-yl)piperidine-2,6-dione]	> 100	1 to 10	–
O=C1CCC(N2Cc3c(ccc4c3OCC43CCN(CC4CCC5(CCN(c6ccc([C@@H]7c8ccc(O)cc8CC[C@@H]7c7ccccc7)cc6)CC5)O4)CC3)C2=O)C(=O)N1 (stereo partly drawn) [Compound B178, 3-(1′-((8-(4-((1R,2S)-6-hydroxy-2-phenyl-1,2,3,4-tetrahydronaphthalen-1-yl)phenyl)-1-oxa-8-azaspiro[4.5]decan-2-yl)methyl)-6-oxo-6,8-dihydro-2H,7H-spiro[furo[2,3-e]isoindole-3,4′-piperidin]-7-yl)piperidine-2,6-dione]	> 100	–	< 1
COc1c2c(cc3c1CN(C1CCC(=O)NC1=O)C3=O)CN(CC(=O)N1CCC3(CC1)CCN(c1ccc([C@@H]4c5ccc(O)cc5CC[C@@H]4c4ccccc4)cc1)CC3)C2 (stereo partly drawn) [Compound B203, 3-(6-(2-(9-(4-((1R,2S)-6-hydroxy-2-phenyl-1,2,3,4-tetrahydronaphthalen-1-yl)phenyl)-3,9-diazaspiro[5.5]undecan-3-yl)-2-oxoethyl)-4-methoxy-1-oxo-3,5,6,7-tetrahydropyrrolo[3,4-f]isoindol-2(1H)-yl)piperidine-2,6-dione]	< 10	< 1	–
O=C1CCC(N2Cc3cc4c(cc3C2=O)OC[C@@H]2CN(C(=O)CN3CC(Nc5ccc([C@@H]6c7ccc(O)cc7CC[C@@H]6c6ccccc6)cc5)C3)CCN42)C(=O)N1 (stereo partly drawn) [Compound B204, 3-((S)-3-(2-(3-((4-((1R,2S)-6-hydroxy-2-phenyl-1,2,3,4-tetrahydronaphthalen-1-yl)phenyl)amino)azetidin-1-yl)acetyl)-8-oxo-1,2,3,4,4a,5,8,10-octahydro-9H-pyrazino[1′,2′:4,5][1,4]oxazino[2,3-f]isoindol-9-yl)piperidine-2,6-dione]	< 10	< 1	–

— patent US20260028354A1, “TETRAHYDRONAPHTHALENE DERIVATIVES AS ESTROGEN RECEPTOR DEGRADERS” (REGENT OF THE UNIVERSITY OF MICHIGAN, priority 2022, published 2026)
